Experiments:
[1] = system: CMV-specific T cells; assay: CMV-specific T cells detected by Interferon-gamma expression in blood of patients taking ACV or VCV (Example 1, FIGS. 9, 10); format: in vivo, human
[2] = system: CMV-specific T cells; assay: Elispot analysis of antigen-specific T cells after CMV lysate stimulation (Example 1, FIG. 11); format: in vivo, human; conditions: patients taking ACV or VCV vs healthy CMV seropositive donors
Method: (§1) The CMV-specific immune response was measured in a cohort of CMV seropositive or seronegative donors who are taking acyclovir or valaciclovir. This was compared to an age-matched control cohort. […] Comprehensive analysis of (1) the total T cell profile of these donors, and (2) their CMV-specific response, was performed. The results were compared to an age-matched control group of CMV seropositive or seronegative donors.
A reduced Elispot response to CMV is seen in patients taking ACV or VCV.

[3] = system: CD4+ T cells; assay: CD27, CD28, CD57 antibody staining of peripheral blood CD4+ T cells (Example 1, FIGS. 12-15); format: in vivo, human; conditions: CMV-seropositive patients taking ACV or VCV vs healthy donors; for percentage of CD4+ T cells which have lost expression of CD27: FIGS. 12, 13; for percentage of CD4+ T cells which have lost expression of CD28: FIGS. 12, 14; for percentage of CD4+ T cells which have gained expression of CD57: FIGS. 12, 15
Method: as §1
In FIG. 12, CD4+ T cells in peripheral blood of 35 CMV-seropositive or seronegative healthy donors were stained with antibodies to CD27, CD28 or CD57. These are shown on the left panel. A similar analysis was performed on patients taking acyclovir or valacyclovir (right hand panel). It can be seen that the percentage of CD4 + T cells which have lost expression of CD27 or CD28, or have gained expression of CD57, is lower in CMV-seropositive patients who are taking ACV or VCV in comparison to healthy donors.
Referring to FIG. 13, CD4+ T cells in peripheral blood of 25 healthy donors or patients taking ACV or VCV were stained with antibodies to CD27.
Referring to FIG. 14, CD4+ T cells in peripheral blood of 25 healthy donors or patients taking ACV or VCV were stained with antibodies to CD28.
Referring to FIG. 15, CD4+ T cells in peripheral blood of 25 healthy donors or patients taking ACV or VCV were stained with antibodies to CD57.

[4] = system: CD8+ T cells; assay: CD57 antibody staining of peripheral blood CD8+ T cells (Example 1, FIG. 16); format: in vivo, human; conditions: CMV seropositive donors, patients taking drug vs healthy controls
Method: as §1

[5] = system: CMV-specific CD4+ T cells; assay: CD4+ T cells producing interferon-gamma after CMV lysate stimulation, single individual (Example 2, FIG. 17); format: in vivo, human; conditions: before, 3 and 14 months after treatment with acyclovir 40 mg b.d.
Text: Referring to FIG. 17, the blood was stimulated with CMV lysate, and the percentage of CD4+ T cells which produce interferon-gamma in response to antigen measured. It can be seen that this percentage was reduced on treatment.

[6] = system: CMV-specific T cells; assay: Interferon-gamma Elispot analysis of CMV-specific T cells, single individual (Example 2, FIG. 18); format: in vivo, human; conditions: before, 3 and 14 months after treatment with acyclovir 40 mg b.d., CMV lysate or pp65 or IE-1 peptide pools
Text: Finally, referring to FIG. 18, the blood was stimulated with CMV lysate, or peptide pools from CMV pp65 or IE-1, and the number of CMV-specific T cells was detected using interferon-gamma Elispot analysis. It can be seen that the magnitude of this response was reduced by treatment.

[7] = system: CMV; conditions: cited from earlier work
[8] = cited from earlier work; for side effects: at common doses
[9] = system: CMV; conditions: ganciclovir and valganciclovir compared with acyclovir and valacyclovir; cited from earlier work
[10] = prodrug compared with penciclovir; cited from earlier work
[11] = FIG. 9, CMV seropositive patients on ACV 400 mg b.d. or VCV 500 mg o.d. or b.d. vs healthy control CMV seropositive donors, CMV lysate or pp65 and IE-1 peptide pools
[12] = FIG. 10, time-dependent effect, ACV 400 mg b.d. or VCV 500 mg o.d. or b.d., CMV lysate

Nc1nc2c(ncn2COCCO)c(=O)[nH]1 [acyclovir, 9-(2-hydroxyethoxymethyl)guanine]
number of CMV-specific T cells (Interferon-gamma expression) [1, 11]: reduced
number of CMV-specific T cells (Interferon-gamma expression) [1, 12]: reduced
Elispot response to CMV [2]: reduced
percentage of CD4+ T cells which have lost expression of CD27 [3]: reduced
percentage of CD4+ T cells which have lost expression of CD27 ([3]; listed as ACV): lower
percentage of CD4+ T cells which have lost expression of CD28 [3]: reduced
percentage of CD4+ T cells which have lost expression of CD28 ([3]; listed as ACV): lower
percentage of CD4+ T cells which have gained expression of CD57 [3]: reduced
percentage of CD4+ T cells which have gained expression of CD57 ([3]; listed as ACV): lower
percentage of CD8+ T cells which express CD57 [4]: reduced
percentage of CD4+ T cells which produce interferon-gamma in response to antigen [5]: reduced
number of CMV-specific T cells (magnitude of interferon-gamma Elispot response) [6]: reduced
activity against CMV replication in vitro [7]: minimal activity
side effects [8]: nausea, vomiting, diarrhoea and/or headaches

Nc1nc(O)c2ncn(COC(CO)CO)c2n1 [ganciclovir]
activity against CMV [9]: markedly improved activity
carcinogenicity, teratogenicity, mutagenicity ([8]; human): potential human carcinogen, teratogen, and mutagen

Nc1nc2c(ncn2CCC(CO)CO)c(=O)[nH]1 [penciclovir]
activity against CMV [9]: minimal activity
side effects compared with acyclovir ([8]; treatment of herpesvirus infections): fewer side effects

CC(C)[C@H](N)C(=O)OCC(CO)OCn1cnc2c(=O)nc(N)[nH]c21 (stereo partly shown) [valganciclovir]
activity against CMV [9]: markedly improved activity

CC(C)[C@H](N)C(=O)OCCOCn1cnc2c(=O)[nH]c(N)nc21 [valacyclovir]
number of CMV-specific T cells (Interferon-gamma expression) [1, 11]: reduced
number of CMV-specific T cells (Interferon-gamma expression) [1, 12]: reduced
Elispot response to CMV [2]: reduced
percentage of CD4+ T cells which have lost expression of CD27 [3]: reduced
percentage of CD4+ T cells which have lost expression of CD27 ([3]; listed as VCV): lower
percentage of CD4+ T cells which have lost expression of CD28 [3]: reduced
percentage of CD4+ T cells which have lost expression of CD28 ([3]; listed as VCV): lower
percentage of CD4+ T cells which have gained expression of CD57 [3]: reduced
percentage of CD4+ T cells which have gained expression of CD57 ([3]; listed as VCV): lower
percentage of CD8+ T cells which express CD57 [4]: reduced
side effects [8]: nausea, vomiting, diarrhoea and/or headaches

CC(=O)OCC(CCn1cnc2cnc(N)nc21)COC(C)=O [Famciclovir]
bioavailability [10]: improved bioavailability

From patent publication US20100280052A1, “USE OF ANTIVIRALS TO TREAT CMV-RELATED CONDITIONS” (priority 2007, published 2010)
